Measurements from patent publication US20130123481A1, “MODIFIED NUCLEOSIDES, NUCLEOTIDES, AND NUCLEIC ACIDS, AND USES THEREOF” (MODERNA THERAPEUTICS, priority 2011, published 2013).

Key:
HeLa cells [1] = test: In vitro Screening in HeLa Cells - luciferase (RLU); type: cell-based, human; set-up: key to Protein (Luc; HeLa): the protein production of HeLa is judged by “+,” “+/−” and “−”; the protein production of HeLa is judged by “+,” “+/−” and “−”; the protein production of HeLa is judged by “+,” “+/−” and “−”; details: Table 47 naturally occurring; *** = production seen in cell free translations
Description: The 2′Fluoro-modified mRNA were then transfected into HeLa cells to assess protein production in a cell context and the same mRNA were also assessed in a cell-free rabbit reticulocyte system. A control of unmodified luciferase (natural luciferase) was used for both transcription experiments, a control of untreated and mock transfected (Lipofectamine 2000 alone) were also analyzed for the HeLa transfection and a control of no RNA was analyzed for the rabbit reticulysates.
For the HeLa transfection experiments, the day before transfection, 20,000 HeLa cells (ATCC no. CCL-2; Manassas, Va.) were harvested by treatment with Trypsin-EDTA solution (LifeTechnologies, Grand Island, N.Y.) and seeded in a total volume of 100 ul EMEM medium (supplemented with 10% FCS and 1× Glutamax) per well in a 96-well cell culture plate (Corning, Manassas, Va.). The cells were grown at […] in 5% CO2 atmosphere overnight. […] Lipofectamine 2000 (LifeTechnologies, Grand Island, N.Y.) was used as transfection reagent and 0.2 ul were diluted in 10 ul final volume of OPTI-MEM. After […] of incubation at room temperature, both solutions were combined and incubated an additional 15 minute at room temperature. Then the 20 ul combined solution was added to the 100 ul cell culture medium containing the HeLa cells and incubated at room temperature. After 18 to 22 hours of incubation cells expressing luciferase were lysed with 100 ul of Passive Lysis Buffer (Promega, Madison, Wis.) according to manufacturer instructions. Aliquots of the lysates were transferred to white opaque polystyrene 96-well plates (Corning, Manassas, Va.) and combined with 100 ul complete luciferase assay solution (Promega, Madison, Wis.). The lysate volumes were adjusted or diluted until no more than 2 mio relative light units (RLU) per well were detected for the strongest signal producing samples and the RLUs for each chemistry tested are shown in Table 42. The plate reader was a BioTek Synergy H1 (BioTek, Winooski, Vt.). The background signal of the plates without reagent was about 200 relative light units per well.
To evaluate using of 2′fluoro-modified mRNA in combination with other modification a series of mRNA were transcribed using either wild-type T7 polymerase (non-fluoro-containing compounds) or using mutant T7 polymerases (fluyoro-containing compounds) as described in Example 86. All modified mRNA were tested by in vitro transfection in HeLa cells.
After 18 to 22 hours of incubation cells expressing luciferase were lysed with 100 ul of Passive Lysis Buffer (Promega, Madison, Wis.) according to manufacturer instructions. Aliquots of the lysates were transferred to white opaque polystyrene 96-well plates (Corning, Manassas, Va.) and combined with 100 ul complete luciferase assay solution (Promega, Madison, Wis.). The lysate volumes were adjusted or diluted until no more than 2 mio relative light units (RLU) per well were detected for the strongest signal producing samples and the RLUs for each chemistry tested are shown in Table 44. The plate reader was a BioTek Synergy H1 (BioTek, Winooski, Vt.). The background signal of the plates without reagent was about 200 relative light units per well.

[2] = system: peripheral blood mononuclear cells (PBMC); test: In Vitro Screening in PBMC - G-CSF protein expression; type: cell-based, human; details: for Protein (G-CSF; PBMC): Table 47 naturally occurring, background about 110 pg/ml; for G-CSF Protein Expression: 500 ng mRNA
Text: (§1) The supernatant was harvested and stored frozen until analyzed by ELISA to determine the G-CSF protein expression, and the induction of the cytokines interferon-alpha (IFN-α) and tumor necrosis factor alpha (TNF-α).

HeLa cells [3] = test: G-CSF expression in HeLa cells (ELISA); type: cell-based, human; set-up: key to Protein (G-CSF; HeLa): the protein production of HeLa is judged by “+,” “+/−” and “−”; the protein production of HeLa is judged by “+,” “+/−” and “−”; the protein production of HeLa is judged by “+,” “+/−” and “−”; details: for Protein (G-CSF; HeLa): Table 47 naturally occurring, *** = production seen in cell free translations; for G-CSF protein (pg/ml) HeLa cells: fully modified G-CSF mRNA transfected in HeLa cells, ELISA
Description: (§2) To assess the activity of all our different chemical modifications in the context of a second open reading frame, we replicated experiments previously conducted using luciferase mRNA, with human G-CSF mRNA. […] The mutant T7 polymerase was obtained commercially (Durascribe® T7 Transcription kit (Cat. No. DS010925) (Epicentre®, Madison, Wis.).
(§3) The modified RNA in Tables 45 and 46 were transfected in vitro in HeLa cells or added to rabbit reticulysates (250 ng of modified mRNA) as indicated. […] In Table 45, “NT” means not tested.

[4] = system: peripheral blood mononuclear cells (PBMC), interferon-alpha (IFN-α); type: cell-based, human; details: Table 47 naturally occurring; IFN-alpha, background about 70 pg/ml
Text: as §1

wild-type T7 polymerase = wild-type T7 polymerase (Escherichia phage T7, UniProt P00573); test: In Vitro Transcription with Wild-Type T7 Polymerase (transcription and capping yield); details: for IVT (G-CSF) / IVT (Luc): Table 47 naturally occurring; for In vitro transcription Yield: wild-type T7 polymerase; for In vitro transcription Yield / Capping reaction Yield: OD260; for Capping reaction Yield: enzymatic capping
wild-type T7 polymerase, sequence (P00573 whole entry): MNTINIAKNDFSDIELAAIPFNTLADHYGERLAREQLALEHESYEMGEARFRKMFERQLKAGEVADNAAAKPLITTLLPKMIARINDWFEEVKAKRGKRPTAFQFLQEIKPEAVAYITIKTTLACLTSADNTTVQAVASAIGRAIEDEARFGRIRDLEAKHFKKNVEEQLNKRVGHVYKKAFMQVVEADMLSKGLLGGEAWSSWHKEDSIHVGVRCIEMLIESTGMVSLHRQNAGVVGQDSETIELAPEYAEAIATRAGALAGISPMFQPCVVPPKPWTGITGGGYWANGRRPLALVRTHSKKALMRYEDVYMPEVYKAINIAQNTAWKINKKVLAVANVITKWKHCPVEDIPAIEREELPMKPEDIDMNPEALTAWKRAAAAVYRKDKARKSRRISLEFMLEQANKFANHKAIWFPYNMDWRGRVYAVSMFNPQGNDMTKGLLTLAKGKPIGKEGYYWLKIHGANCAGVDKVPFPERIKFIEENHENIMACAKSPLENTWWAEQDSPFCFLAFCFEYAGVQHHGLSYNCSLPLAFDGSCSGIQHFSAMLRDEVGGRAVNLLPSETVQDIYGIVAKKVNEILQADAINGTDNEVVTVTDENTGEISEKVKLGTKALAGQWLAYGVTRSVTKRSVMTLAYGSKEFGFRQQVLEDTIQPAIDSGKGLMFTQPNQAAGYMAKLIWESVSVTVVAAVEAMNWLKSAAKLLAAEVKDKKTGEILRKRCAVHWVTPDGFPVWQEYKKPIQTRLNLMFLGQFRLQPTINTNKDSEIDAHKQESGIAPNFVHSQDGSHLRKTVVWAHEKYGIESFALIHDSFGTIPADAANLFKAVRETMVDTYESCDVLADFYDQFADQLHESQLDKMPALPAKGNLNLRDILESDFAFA
Description: The luciferase and G-CSF modified mRNA were also subjected to an enzymatic capping reaction and each modified mRNA capping reaction was evaluated for yield by spectrophometic measurement (OD260) and correct size assessed using bioanalyzer.

rabbit reticulysates = test: G-CSF expression in rabbit reticulysates (ELISA); type: biochemical; details: 250 ng modified G-CSF mRNA in rabbit reticulysates
Description: as §2, §3

[5] = G-CSF mRNA in vitro transcription, Pass/Fail
[6] = luciferase mRNA in vitro transcription, Pass/Fail
[7] = PBMC Donor 1, 0.4 uL Lipofectamine 2000

N^6-methyladenosine (m^6A)
Protein (Luc; HeLa) (HeLa cells [1]): −
Protein (G-CSF; PBMC) [2]: +/− (“+/−” means 150-300 pg/ml G-CSF)
Protein (G-CSF; HeLa) (HeLa cells [3]): −
Cytokines (G-CSF; PBMC) [4]: ++++ (“++++” means greater than 1,000 pg/ml interferon-alpha (IFN-alpha))
IVT (G-CSF) (wild-type T7 polymerase; [5]): Pass
IVT (Luc) (wild-type T7 polymerase; [6]): Pass

O=c1[nH]cc([C@@H]2O[C@H](CO)[C@@H](O)[C@H]2O)c(=O)[nH]1 [pseudouridine (Y)]
Protein (Luc; HeLa) (HeLa cells [1]): +
Protein (G-CSF; PBMC) [2]: ++ (“++” means greater than 1,500 pg/ml G-CSF)
Protein (G-CSF; HeLa) (HeLa cells [3]): +
Cytokines (G-CSF; PBMC) [4]: + (“+” means greater than 100 pg/ml IFN-alpha)
IVT (G-CSF) (wild-type T7 polymerase; [5]): Pass
IVT (Luc) (wild-type T7 polymerase; [6]): Pass

Cc1cn([C@@H]2O[C@H](CO)[C@@H](O)[C@H]2O)c(=O)nc1N [Compound 5-methyl-cytidine, 5-methyl-cytidine]
G-CSF protein (pg/ml) Rabbit reticulysates cells (rabbit reticulysates): 79,375 pg/ml
G-CSF protein (pg/ml) HeLa cells (HeLa cells [3]): 646,591 pg/ml

O=c1[nH]c(=S)ccn1[C@@H]1O[C@H](CO)[C@@H](O)[C@H]1O [4-thiouridine]
G-CSF Protein Expression [2, 7]: 5 pg/mL
G-CSF Protein Expression ([2]; PBMC Donor 2): 391 pg/mL
G-CSF Protein Expression ([2]; PBMC Donor 3): 218 pg/mL
G-CSF protein (pg/ml) Rabbit reticulysates cells (rabbit reticulysates): 52,375 pg/ml
G-CSF protein (pg/ml) HeLa cells (HeLa cells [3]): 107,273 pg/ml

Nc1nc(=O)n([C@@H]2O[C@H](CO)[C@@H](O)[C@H]2O)cc1C=O [Compound 5-formyl-cytidine, 5-formyl-cytidine]
G-CSF protein (pg/ml) Rabbit reticulysates cells (rabbit reticulysates): 24,000 pg/ml
G-CSF protein (pg/ml) HeLa cells (HeLa cells [3]): 0 pg/mL

Cn1cc([C@@H]2O[C@H](CO)[C@@H](O)[C@H]2O)c(=O)[nH]c1=O [1-methylpseudouridine (m^1Y)]
Protein (Luc; HeLa) (HeLa cells [1]): +
Protein (G-CSF; PBMC) [2]: ++++ (“++++” means greater than 6,000 pg/ml G-CSF)
Cytokines (G-CSF; PBMC) [4]: − (“−” means less than 100 pg/ml)
IVT (G-CSF) (wild-type T7 polymerase; [5]): Pass
IVT (Luc) (wild-type T7 polymerase; [6]): Pass

O=c1ccn([C@@H]2O[C@H](CO)[C@@H](O)[C@H]2O)c(=S)[nH]1 [2-thiouridine]
G-CSF Protein Expression [2, 7]: 932 pg/mL
G-CSF Protein Expression ([2]; PBMC Donor 2): 1,000 pg/ml
G-CSF Protein Expression ([2]; PBMC Donor 3): 600 pg/mL
G-CSF protein (pg/ml) Rabbit reticulysates cells (rabbit reticulysates): 18,375 pg/ml
G-CSF protein (pg/ml) HeLa cells (HeLa cells [3]): 417,273 pg/ml

Nc1cnn([C@@H]2O[C@H](CO)[C@@H](O)[C@H]2O)c(=O)n1 [Compound 6-Aza-cytidine, 6-Aza-cytidine]
IVT (G-CSF), first result (wild-type T7 polymerase; Table 48 non-naturally occurring, G-CSF mRNA in vitro transcription, Pass/Fail): Fail
IVT (Luc), first result (wild-type T7 polymerase; Table 48 non-naturally occurring, luciferase mRNA in vitro transcription, Pass/Fail): Fail

COc1cn([C@@H]2O[C@H](CO)[C@@H](O)[C@H]2O)c(=O)[nH]c1=O [5-methoxyuridine]
G-CSF Protein Expression [2, 7]: 2,964 pg/ml
G-CSF Protein Expression ([2]; PBMC Donor 2): 1,832 pg/ml
G-CSF Protein Expression ([2]; PBMC Donor 3): 1,800 pg/ml
G-CSF protein (pg/ml) Rabbit reticulysates cells (rabbit reticulysates): 201,750 pg/ml
G-CSF protein (pg/ml) HeLa cells (HeLa cells [3]): 1,715,909 pg/ml

COC(=O)C=Cc1cn([C@@H]2O[C@H](CO)[C@@H](O)[C@H]2O)c(=O)[nH]c1=O [5 (2 carbomethoxyvinyl) uridine]
In vitro transcription Yield (wild-type T7 polymerase; G-CSF mRNA): 1.8 mg
Capping reaction Yield (wild-type T7 polymerase; G-CSF modified mRNA (wild-type T7)): 1.28 mg
In vitro transcription Yield (wild-type T7 polymerase; Luciferase mRNA): 0.89 mg
Capping reaction Yield (wild-type T7 polymerase; Luciferase modified mRNA (wild-type T7)): 0.54 mg
